Source: publication PMC11695783 (Frontiers in Pharmacology, 2024)
Values after ≈ are worked out from the molar mass of the structure shown. Where two headings read alike, the source gives them in different places.

Legend:
[1] = broilers, cited from earlier work
[2] = test system: mice; settings: oral acute toxicity; ref Fan et al., 2022; Hu et al.; Zhang et al., 2015; Zuo et al., 2020; cited from earlier work
[3] = design: method as in Wang Y. et al., 2024; Zuo et al., 2020; settings: chickens, ref Wang Y. et al., 2024, Zuo et al., 2020, cited from earlier work
[4] = 2020, cited from earlier work; for AUC0-∞: ref Zuo et al.; for bioavailability: mice, ref Wang Y. et al., 2024, Zuo et al.
[5] = test system: M. pneumoniae; design: method as in Eraikhuemen et al., 2021; settings: against M. pneumoniae; ref Eraikhuemen et al., 2021; cited from earlier work
[6] = test system: Mycoplasma pneumoniae strain M129 (ATCC 29342); assay: Time-kill curves; type: cell-based; design: M. pneumoniae count in time-kill curve: unit not given here
Description: (§1) Mycoplasma pneumoniae strain M129 (ATCC 29342) was obtained from American Type Culture Collection (Manassas, VA, United States) and cultured at 37°C in the presence of 5% CO2 in the modified SP-4 liquid medium (pH 7.4) containing 2.1% (w/v) CM1166 mycoplasma broth base medium (Oxoid, Hants, United Kingdom), 20% (v/v) fetal bovine serum (FBS, Bioexplorer, CO, United States), 0.4% yeast extract (Oxoid), 0.55% (w/v) CMRL 1066 w/L-glutamine culture media powder (MyBioSource, San Diego, CA, United States), 1% D-glucose (Macklin) and 0.004% phenol red (Macklin). […] The solid medium is based on the above formula with the addition of 1% agar, and the characteristic fried egg-like colonies were used for experiments following incubation for 7 d on plates.
The tubes were incubated at 37°C in 5% CO2 for 72 h, and 200 µL of the culture was removed every 12 h for 10-fold serial dilutions. The diluted cultures were plated on plates for further culture and counted after 7 d. The experiment was repeated three times.

[7] = test system: Mycoplasma pneumoniae strain M129 (ATCC 29342); assay: Susceptibility assay (broth microdilution MIC, MBC); type: cell-based
Description: as §1
The broth microdilution MIC procedure was performed according to standardized methods for microdilution susceptibility testing of mycoplasma species ([Waites et al., 2012]). […] The concentration of organisms should be determined to approximately 10^6 CFU/mL prior to inoculation into 96-well plates. Due to the action of phenol red, the acidic metabolites of microbial growth can turn the medium yellow. […] The MBC assays were performed based on MICs following endpoint reading and the liquid in the high-concentration wells was removed for bacterial counting.

C=C[C@]1(C)C[C@@H](OC(=O)CSc2nnc(N)s2)[C@]2(C)[C@H](C)CC[C@]3(CCC(=O)[C@H]32)[C@@H](C)[C@@H]1O [ATTM, 14-o-[(2-amino-1,3,4-thiadiazol-5-yl)thioacetyl] mutilin]
bioavailability ([1]; IM, ref Shang et al., 2018, Xianhui, 2010): 75.29%
bioavailability ([1]; PO, ref Shang et al., 2018, Xianhui, 2010): 72.03%
LD50 [2]: 2,304.4 mg/kg

C=C[C@]1(C)C[C@@H](OC(=O)CSc2ccccc2N)[C@]2(C)[C@H](C)CC[C@]3(CCC(=O)[C@H]32)[C@@H](C)[C@@H]1O [amphenmulin, 22-(2-amino-phenylsulfanyl)-22-deoxypleuromutilin]
bioavailability ([3]; IM): 52.14%
bioavailability ([3]; PO): 5.88%
AUC0-∞ ([4]; intraperitoneal, at the same dose): 2520 ng·h/mL
AUC0-∞ ([4]; intravenous, at the same dose as compound 16C): 12230 ng·h/mL
bioavailability ([4]; IP): 20.71%
bioavailability ([4]; PO): 13.65%
AUC0-∞ ([4]; oral, at the same dose): 1670 ng·h/mL
LD50 [2]: > 5,000 mg/kg

C=C[C@]1(C)C[C@@H](OC(=O)CS[C@@H]2CC[C@@H](N)C[C@H]2O)[C@]2(C)[C@H](C)CC[C@]3(CCC(=O)[C@H]32)[C@@H](C)[C@@H]1O [lefamulin]
MIC90 [5]: 0.006 µg/mL (≈ 0.0118 µM)

CN(C)[C@@H]1C(O)=C(C(N)=O)C(=O)[C@@]2(O)C(O)=C3C(=O)c4c(O)cccc4[C@@](C)(O)[C@H]3C[C@@H]12 [tetracycline]
M. pneumoniae count in time-kill curve ([6]; 1×MIC, time 0): 6.522
M. pneumoniae count in time-kill curve ([6]; 1×MIC, time 12): 6.243
M. pneumoniae count in time-kill curve ([6]; 1×MIC, time 24): 5.358
M. pneumoniae count in time-kill curve ([6]; 1×MIC, time 36): 5.0751
M. pneumoniae count in time-kill curve ([6]; 1×MIC, time 48): 3.623
M. pneumoniae count in time-kill curve ([6]; 1×MIC, time 60): 4.011
M. pneumoniae count in time-kill curve ([6]; 1×MIC, time 72): 4.04
reduction of bacterial counts ([6]; 1–2×MIC, 72 h): 2.38–2.48 log10 CFU/mL
M. pneumoniae count in time-kill curve ([6]; 2×MIC, time 0): 6.522
M. pneumoniae count in time-kill curve ([6]; 2×MIC, time 12): 5.562
M. pneumoniae count in time-kill curve ([6]; 2×MIC, time 24): 5.13
M. pneumoniae count in time-kill curve ([6]; 2×MIC, time 36): 4.505
M. pneumoniae count in time-kill curve ([6]; 2×MIC, time 48): 3.395
M. pneumoniae count in time-kill curve ([6]; 2×MIC, time 60): 3.925
M. pneumoniae count in time-kill curve ([6]; 2×MIC, time 72): 4.141
M. pneumoniae count in time-kill curve ([6]; 4×MIC, time 0): 6.522
M. pneumoniae count in time-kill curve ([6]; 4×MIC, time 12): 5.527
M. pneumoniae count in time-kill curve ([6]; 4×MIC, time 24): 4.565
M. pneumoniae count in time-kill curve ([6]; 4×MIC, time 36): 4.182
M. pneumoniae count in time-kill curve ([6]; 4×MIC, time 48): 3.523
M. pneumoniae count in time-kill curve ([6]; 4×MIC, time 60): 3.499
M. pneumoniae count in time-kill curve ([6]; 4×MIC, time 72): 3.057
M. pneumoniae count in time-kill curve ([6]; 8×MIC, time 0): 6.522
M. pneumoniae count in time-kill curve ([6]; 8×MIC, time 12): 5.0382
M. pneumoniae count in time-kill curve ([6]; 8×MIC, time 24): 4.431
M. pneumoniae count in time-kill curve ([6]; 8×MIC, time 36): 4.11
M. pneumoniae count in time-kill curve ([6]; 8×MIC, time 48): 3.568
M. pneumoniae count in time-kill curve ([6]; 8×MIC, time 60): 3.5
M. pneumoniae count in time-kill curve ([6]; 8×MIC, time 72): 3.462
M. pneumoniae count in time-kill curve ([6]; 16×MIC, time 0): 6.522
M. pneumoniae count in time-kill curve ([6]; 16×MIC, time 12): 5.216
M. pneumoniae count in time-kill curve ([6]; 16×MIC, time 24): 4.191
M. pneumoniae count in time-kill curve ([6]; 16×MIC, time 36): 3.827
M. pneumoniae count in time-kill curve ([6]; 16×MIC, time 48): 3.742
M. pneumoniae count in time-kill curve ([6]; 16×MIC, time 60): 3.715
M. pneumoniae count in time-kill curve ([6]; 16×MIC, time 72): 3.031
M. pneumoniae count in time-kill curve ([6]; 32×MIC, time 0): 6.522
M. pneumoniae count in time-kill curve ([6]; 32×MIC, time 12): 4.677
M. pneumoniae count in time-kill curve ([6]; 32×MIC, time 24): 4.038
M. pneumoniae count in time-kill curve ([6]; 32×MIC, time 36): 3.597
M. pneumoniae count in time-kill curve ([6]; 32×MIC, time 48): 3.571
M. pneumoniae count in time-kill curve ([6]; 32×MIC, time 60): 3.497
M. pneumoniae count in time-kill curve ([6]; 32×MIC, time 72): 3.078
M. pneumoniae count in time-kill curve ([6]; 64×MIC, time 0): 6.522
M. pneumoniae count in time-kill curve ([6]; 64×MIC, time 12): 4.323
M. pneumoniae count in time-kill curve ([6]; 64×MIC, time 24): 4.306
M. pneumoniae count in time-kill curve ([6]; 64×MIC, time 36): 3.779
M. pneumoniae count in time-kill curve ([6]; 64×MIC, time 48): 3.079
M. pneumoniae count in time-kill curve ([6]; 64×MIC, time 60): 3.41
M. pneumoniae count in time-kill curve ([6]; 64×MIC, time 72): 3.079
concentration at which bactericidal effect was achieved ([6]; static time-kill, 72 h): ≥ 4 × MIC
MBC [7]: 3.2 µg/mL (≈ 7.2 µM)

C=C[C@]1(C)C[C@@H](OC(=O)CSC(C)(C)CNC(=O)[C@H](N)C(C)C)[C@]2(C)[C@H](C)CC[C@]3(CCC(=O)[C@H]32)[C@@H](C)[C@@H]1O [valnemulin]
bioavailability ([1]; IM, ref WANG et al., 2011): 88.81%
